Legend:
[1] = tested on: chorioallantoic membrane (CAM); experiment: Anti-angiogenesis CAM assay; type: in vivo, White Leghorn eggs; conditions: ten eggs, 48 hours
Method: The dosing was effected by pipetting 40 μl of the indicated solution onto a 13 mm round Thermanox® coverslip and allowing it to air dry. After the material appeared dry, the coverslip was placed onto the chorioallantoic membrane (CAM) of each egg insuring contact of the dried test article with the CAM. After dosing, the eggs were returned to the incubator for approximately 48 hours. Following the 48 hour exposure period, the eggs were removed from the incubator, observed for viability, and the exposed area under the coverslip was examined for loss of vasculature.

HS 578T = experiment: NCI SRB tumor cell growth assay, Breast Cancer; type: cell-based
Method: (§1) An in vitro assay which tested the ability of N,N,-diethyl-8,8-dipropyl-2-azaspiro[4,5]decane-2-propanamine dimaleate (Compound 1) to inhibit the growth of known cancer cell lines was performed by the National Cancer Institute in accordance with standard procedures. See: Lin, Z. X., Hoult, J. R., and Raman, A. Sulphorhodamine B assay for measuring proliferation of a pigmented melanocyte cell line and its application to the evaluation of crude drugs used in the treatment of vitiligo. J Ethnopharmacol. 66: 141-150, 1999. Briefly, selected tumor cell lines were cultured in media containing five different concentrations of Compound 1. After 48 hours of continuous exposure, a sulforhodamine B (SRB) assay was used to estimate cell viability or growth via optical measurements.
(§2) From the measurements, the following values were determined: 1) the concentration of Compound 1 at which a tumor cell growth inhibition of 50% (relative to control) occurs (GI50), 2) the concentration of Compound 1 at which no growth occurs (total growth inhibition, TGI), and 3) the concentration of Compound 1 at which the […] (LC 50). […] FIG. 6 illustrates, graphically, tumor cell growth as a function of Compound 1 concentration of the scanned tumor cell lines.

CaCo-2 cells = experiment: Induction of apoptosis, DNA fragmentation analysis; type: cell-based, human; conditions: 12 hours
Method: (§3) T84, CaCo-2 and HUVEC cells, respectively, were grown in 100 mm dishes for 7-9 days, culture media for HUVEC was EGM-2 (Clonetics, BioWhitaker Co.), until they reached semi-confluency. Cell monolayers were then treated for 12 hours (CaCo-2 and T84) and 16 hours (HUVEC), respectively, at the indicated concentrations of N,N,-diethyl-8,8-dipropyl-2-azaspiro[4,5]decane-2-propanamine dimaleate (Compound 1) in culture media. Cells were collected by trypsinization and the apoptotic DNA was isolated from these cells following the instructions of the DNA fragmentation analysis kit (Boehringer Mannheim Corp., Indianapolis, Ind.). The apoptotic DNA was evaluated using 1.5% agarose gel electrophoresis followed by staining with ethidium bromide. M denotes the lane containing molecular weight markers of DNA.

HUVEC cells = experiment: Induction of apoptosis, DNA fragmentation analysis; type: cell-based, human; conditions: 16 hours
Method: as §3

T84 cells = experiment: Induction of apoptosis, DNA fragmentation analysis; type: cell-based, human; conditions: 12 hours
Method: as §3

caspase-3 = experiment: Activation of caspases in T84 colon carcinoma cells; type: cell-based, human; conditions: 10 hours
Method: (§4) Activities of caspase-3 and caspase-9 were measured using […] assay kits (BioVision, CA). The procedure used was essentially the same as described in the manufacturer's instruction. Briefly, 7-day-old monolayers of T 84 cells in 100 mm dishes were treated with either vehicle (as control) or N,N,-diethyl-8,8-dipropyl-2-azaspiro[4,5]decane-2-propanamine dimaleate (Compound 1) at the indicated respective concentrations for 10 hours. After the treatment, cells were washed with PBS and the cell extracts were prepared by resuspending cells in 200 μl (˜10^8 cells) of lysis buffer provided in the kit. Cell debris was removed by centrifugation at 10,000×g for 30 min. Supernatants (50-100 μg of protein) were pre-incubated with 10 mM dithiothreitol, 50 mM HEPES, 10% sucrose, 0.1% CHAPS (pH 7.5) and the reaction was started with the addition of 100 μM of the appropriate substrate (DEVD-pNA for caspase-3 and LEHD-pNA for caspase-9). The assay plates (96-well) were incubated at 37° C. for 2 hours, and the yellow color resulting from the release of pNA was measured at 405 nm using an ELISA reader. Samples were run in triplicate and results were expressed as an average of three determinations.

caspase-9 = experiment: as above; type: cell-based, human; conditions: 10 hours
Method: as §4

Various Tumor Cell Lines = experiment: NCI SRB tumor cell growth assay, summary over all cell lines; type: cell-based
Method: as §1, §2

Row | Structure (SMILES) | Dead Eggs ([1]; Dose Per Egg 100 μg) | Log10 TGI (HS 578T) | DNA laddering (apoptosis) (CaCo-2 cells) | DNA laddering (apoptosis) (HUVEC cells) | DNA laddering (apoptosis) (T84 cells) | caspase-3 activity (caspase-3) | caspase-9 activity (caspase-9) | Log10 LC50, MG_MID (Various Tumor Cell Lines) | Dead Eggs ([1]; Dose Per Egg 25 μg) | Dead Eggs ([1]; Dose Per Egg 50 μg) | Dead Eggs ([1]; Dose Per Egg 200 μg) | Dead Eggs ([1]; Dose Per Egg 400 μg)
1 | O=C1CCC(N2C(=O)c3ccccc3C2=O)C(=O)N1 (stereo not shown) [Thalidomide, reference compound] | 0 | – | – | – | – | – | – | – | – | – | – | –
2 | CCCC1(CCC)CCC2(CCN(CCCN(CC)CC)C2)CC1.O=C(O)/C=C\C(=O)O.O=C(O)/C=C\C(=O)O [Compound 1, N,N,-diethyl-8,8-dipropyl-2-azaspiro[4,5]decane-2-propanamine dimaleate] | 4 | −5.40 | formation of DNA laddering in a dose-dependent manner | formation of DNA laddering in a dose-dependent manner | formation of DNA laddering in a dose-dependent manner | activation | activation | −5.06 | 0 | 0 | 3 | 7

From US20070015780A1, “Method of treating cancer with azaspirane compositions” (priority 2003, published 2007)
